# Source: US20090217393A1, “Growth Promoting Agent and Life Prolonging Agent” (B FOOD SCIENCE CO., LTD., priority 2005, published 2009)
# Key:
# [1] = tested on: Radish sprouts; experiment: Radish sprout cultivation test; type: in vivo
# Description: Radish sprouts were cultivated in 0.75% agar mediums containing erythritol, mannitol, and sorbitol each at concentrations of 0.05% by mass, 0.1% by mass, and 0.5% by mass as sugar alcohols, and in an agar medium containing no sugar alcohol (0%). 3 and 6 days after germination, the lengths of radish sprouts were measured.
# [2] = tested on: shiitake; experiment: Mushroom (shiitake) cultivation test; type: in vivo; conditions: for Number of mushroom with pileus diameter of 5 cm or more: 8 days later, control 2
# Description: A shiitake cultivation test was performed using a commercially available shiitake cultivation kit.
# The cultivation kit is a product produced by hardening wood chips prepared by pulverizing broad-leaved tree, together with a nutritional supplement and a shiitake fungus into a block form. The blocks were separately immersed in aqueous solutions containing 0% by mass (no addition), 0.05% by mass, 0.5% by mass, and 5% by mass of erythritol, and the surfaces of the blocks were washed. Then, the blocks were placed in plastic bags to prevent drying, and the tops of the bags were closed with clothespins, followed by cultivation of the shiitake while adjusting the temperature to 23° C. during the daytime and to 8° C. during the nighttime. Whenever the surfaces of the blocks were dried, the surfaces of the blocks were moisturized using a spray with the aqueous solutions containing erythritol at the above-mentioned each concentration. 3 days later, the shiitake started to germinate on the blocks, and 8 days later, the diameter and number of each pileus of the shiitake were measured.
# [3] = tested on: yeast Saccharomyces cerevisiae; experiment: Yeast culture test; type: cell-based; conditions: SD medium containing 0.006% by mass of erythritol
# Description: A yeast Saccharomyces cerevisiae was cultured in an SD medium containing 0.006% by mass of erythritol (erythritol-added group; the present invention) and in an SD medium containing no erythritol (no-erythritol-added group; control). 27 hours later, absorbances at 660 nm were measured.
# [4] = tested on: Layers (white Plymouth Rock); experiment: Layer growth test; type: in vivo; conditions: feed containing 5% by mass of erythritol
# Description: Layers (white Plymouth Rock) were divided into a group fed with a feed containing 5% by mass of erythritol (erythritol-added group; the present invention) and a group fed with a feed containing no erythritol (no-erythritol-added group; control), and bred. The breeding was performed for 24 months, which was generally defined so as to generate economic benefits, and the survival rates were continuously watched. Meanwhile, average body weights (g) were continuously watched for four weeks.
# [5] = tested on: Arabidopsis plants; experiment: Arabidopsis plant cultivation test; type: in vivo; conditions: Murashige & Skoog medium containing 0.06% by mass of erythritol; vs control
# Text: Arabidopsis plants were separately inoculated into a Murashige & Skoog medium containing 0.06% by mass of erythritol (erythritol-added group; the present invention) and a medium containing no erythritol (no-erythritol-added group; control), followed by comparison of growth of the Arabidopsis plants.
# [6] = tested on: Crj:BDF1 mice (male); experiment: Mouse breeding test; type: in vivo; conditions: feed containing 5% by mass of erythritol
# Text: Crj:BDF1 mice (male) were divided into a group fed with a feed containing 5% by mass of erythritol (erythritol-added group; the present invention) and a group fed with a feed containing no erythritol (no-erythritol-added group; control), and bred, followed by investigation of 50% survival times, 75% survival times, average survival times, survival rates, and maximum survival times.
# [7] = 0.05% by mass sugar alcohol in 0.75% agar medium, After 3 days
# [8] = 0.05% by mass sugar alcohol in 0.75% agar medium, After 6 days
# [9] = 0.1% by mass sugar alcohol in 0.75% agar medium, After 3 days
# [10] = 0.1% by mass sugar alcohol in 0.75% agar medium, After 6 days
# [11] = 0.5% by mass sugar alcohol in 0.75% agar medium, After 3 days
# [12] = 0.5% by mass sugar alcohol in 0.75% agar medium, After 6 days
compound,measurement,setting,value
OC[C@@H](O)[C@@H](O)[C@H](O)[C@@H](O)CO [sorbitol],Lengths of radish sprouts,[1]; [7],30 mm
same,Lengths of radish sprouts,[1]; [8],68 mm
same,Lengths of radish sprouts,[1]; [9],31 mm
same,Lengths of radish sprouts,[1]; [10],64 mm
same,Lengths of radish sprouts,[1]; [11],27 mm
same,Lengths of radish sprouts,[1]; [12],52 mm
OC[C@@H](O)[C@@H](O)[C@H](O)[C@H](O)CO [mannitol],Lengths of radish sprouts,[1]; [7],15 mm
same,Lengths of radish sprouts,[1]; [8],59 mm
same,Lengths of radish sprouts,[1]; [9],29 mm
same,Lengths of radish sprouts,[1]; [10],61 mm
same,Lengths of radish sprouts,[1]; [11],24 mm
same,Lengths of radish sprouts,[1]; [12],55 mm
OC[C@@H](O)[C@@H](O)CO [erythritol],Number of mushroom with pileus diameter of 5 cm or more,[2]; 0.05% by mass erythritol aqueous solution,8
same,Number of mushroom with pileus diameter of 5 cm or more,[2]; 0.5% by mass erythritol aqueous solution,5
same,Number of mushroom with pileus diameter of 5 cm or more,[2]; 5.0% by mass erythritol aqueous solution,9
same,numbers of mushrooms with a pileus diameter of 5 cm or more compared with control,"[2]; all the concentrations (0.05, 0.5, 5% by mass)",significantly increase
same,yeast proliferation effect,[3],confirmed
same,absorbance at 660 nm,"[3]; 27 hours later, control 2.65",2.88
same,sizes of the yeast cells larger than control,[3]; under a microscope,about 20%
same,survival rate compared with control,"[4]; breeding for 24 months, FIG. 2",increased
same,average body weight compared with control,"[4]; watched for four weeks, FIG. 3",increased
same,growth promoting effect on roots and leaves/stems,[5],confirmed
same,Lengths of radish sprouts,[1]; [7],46 mm
same,Lengths of radish sprouts,[1]; [8],109 mm
same,length of radish sprouts / growth promoting effect compared with no-sugar-alcohol-added group,[1]; 0.05 to 0.5% by mass in agar medium,particularly excellent growth promoting effects
same,Lengths of radish sprouts,[1]; [9],30 mm
same,Lengths of radish sprouts,[1]; [10],76 mm
same,Lengths of radish sprouts,[1]; [11],31 mm
same,Lengths of radish sprouts,[1]; [12],87 mm
same,50% survival time,[6]; Crj:BDF1 male mice,927 days
same,75% survival time,[6]; Crj:BDF1 male mice,850 days
same,Average survival time,[6]; Crj:BDF1 male mice,768 days
same,Maximum survival time,[6]; Crj:BDF1 male mice,"1,080 days"
same,50% survival time compared with control,[6]; vs no-erythritol-added group,prolonged
same,75% survival time compared with control,[6]; vs no-erythritol-added group,prolonged
same,average survival time compared with control,[6]; vs no-erythritol-added group,prolonged
same,maximum survival time compared with control,[6]; vs no-erythritol-added group,no significant difference
same,survival rate compared with control,[6]; vs no-erythritol-added group,prolonged
